Assay results from patent US20170275270A1, “BENZYL SUBSTITUTED INDAZOLES” (Bayer Pharma Aktiengesellschaft, priority 2014, published 2017).
Counter-ions that a name gives are not always drawn. Like-named read-outs stand apart in the source and are kept apart here.

Assays:
Bub1 = Bub1 (Homo sapiens, UniProt O43683); assay: Formation-Assay: phosphorylation status of histone 2A by inhibition of kinase activity of Bub1; assay type: cell-based; conditions: Biological Assay 4.1: H2A Formation IC50, co-treatment with Nocodazole 1 μg/ml, 16 h
Sequence of Bub1 (O43683 whole entry): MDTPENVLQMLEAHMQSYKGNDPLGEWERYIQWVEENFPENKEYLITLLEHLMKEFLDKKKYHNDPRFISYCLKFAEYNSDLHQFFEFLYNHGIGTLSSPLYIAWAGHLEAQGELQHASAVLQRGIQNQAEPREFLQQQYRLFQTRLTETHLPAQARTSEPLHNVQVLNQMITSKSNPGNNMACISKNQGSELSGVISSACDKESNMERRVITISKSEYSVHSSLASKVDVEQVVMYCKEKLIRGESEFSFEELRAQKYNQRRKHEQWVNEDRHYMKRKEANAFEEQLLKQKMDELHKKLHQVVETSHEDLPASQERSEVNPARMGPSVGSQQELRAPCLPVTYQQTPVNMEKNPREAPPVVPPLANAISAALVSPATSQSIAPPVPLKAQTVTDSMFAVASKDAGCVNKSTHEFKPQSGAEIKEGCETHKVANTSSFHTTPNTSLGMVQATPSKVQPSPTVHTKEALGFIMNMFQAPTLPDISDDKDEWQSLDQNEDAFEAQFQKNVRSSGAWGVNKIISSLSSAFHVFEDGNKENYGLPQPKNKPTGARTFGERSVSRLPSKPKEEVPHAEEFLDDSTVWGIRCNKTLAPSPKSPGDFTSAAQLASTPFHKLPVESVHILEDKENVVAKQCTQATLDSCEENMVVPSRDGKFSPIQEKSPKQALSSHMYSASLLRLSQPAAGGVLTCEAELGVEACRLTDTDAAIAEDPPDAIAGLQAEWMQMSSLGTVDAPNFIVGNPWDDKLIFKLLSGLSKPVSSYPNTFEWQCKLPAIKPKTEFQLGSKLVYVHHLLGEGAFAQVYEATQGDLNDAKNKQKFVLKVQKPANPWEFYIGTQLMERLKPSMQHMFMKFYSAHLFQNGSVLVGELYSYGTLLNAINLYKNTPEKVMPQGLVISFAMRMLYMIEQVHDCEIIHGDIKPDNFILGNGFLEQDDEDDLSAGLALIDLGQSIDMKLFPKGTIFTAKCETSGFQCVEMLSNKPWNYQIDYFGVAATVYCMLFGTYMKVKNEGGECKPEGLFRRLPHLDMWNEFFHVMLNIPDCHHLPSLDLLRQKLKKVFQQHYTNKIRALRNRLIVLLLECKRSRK
Summary of the method: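 Cells co-treated 16 h with Nocodazole (1 μg/ml) and compound (3 nM–10 μM), then fixed and immunostained for phospho-H2A, read by infrared imaging (800 nm) normalised to cell stain (700 nm). Nocodazole-only set as 100%, untreated cells as 0%.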

[1] = tested on: HeLa human cervical tumor cells; assay: Proliferation assay (HeLa+Paclitaxel); conditions: read-out: Biological Assay 3: HeLa + Paclitaxel IC50, 3 nM paclitaxel, crystal violet;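 note: compounds at 0.001-10 µM added 4 h after paclitaxel, 92 h exposure, absorbance normalized to zero-point plate (0%) and untreated cells (100%), IC50 from 4-parameter fit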
Method: Proliferation Assay (HeLa+Paclitaxel):
Cultivated HeLa human cervical tumor cells (DSMZ ACC-57) were plated at a density of 3000 cells/well in a 96-well multititer plate in 200 μL of growth medium supplemented 10% fetal calf serum. After 24 hours, the cells of one plate (zero-point plate) were stained with crystal violet (see below). The medium of the other plates was supplemented with 3 nM of paclitaxel (Sigma-Aldrich) and the cells were incubated at 37° C. After 4 hours the test substances were added in various concentrations (0 μM, as well as in the range of 0.001-10 μM; the final concentration of the solvent dimethyl sulfoxide was adjusted to 0.1%) using a Hewlett-Packard HP D300 Digital Dispenser. The cells were incubated for another 92 hours at 37° C. in the presence of test substances. Cell proliferation was determined by staining the cells with crystal violet: the cells were fixed by adding 20 μL/measuring point of an 11% glutaric aldehyde solution for 15 minutes at room temperature. After three washing cycles of the fixed cells with water, the plates were dried at room temperature. The cells were stained by adding 100 μL/measuring point of a 0.1% crystal violet solution (pH 3.0). After three washing cycles of the stained cells with water, the plates were dried at room temperature. The dye was dissolved by adding 100 μL/measuring point of a 10% acetic acid solution. […] The change of cell number, in percent, was calculated by normalization of the measured values to the absorbtion values of the zero-point plate (=0%) and the absorbtion of the untreated (0 μm) cells (=100%). The IC50 values were determined by means of a 4 parameter fit.

HeLa = assay: Proliferation assay (HeLa cell line); conditions: Homo sapiens, 96 h, read-out: Biological Assay 2: Proliferation assay (HeLa cell line) median IC50;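 note: crystal violet staining of cell number, scaled between a plate stained before dosing (0%) and cells left untreated (100%), compounds tested at 0.001-10 µM, IC50 via 4-parameter fit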
[2] = molecular target: T1, catalytic domain of human Bub1 (amino acids 704-1085) (Homo sapiens, UniProt O43683); assay: Bub1 kinase assay (TR-FRET); assay type: biochemical
T1 construct: catalytic domain of human Bub1 (amino acids 704-1085); His6 (N); made in house; host or cells: Hi5 insect cells
T1 sequence (O43683 704-1085): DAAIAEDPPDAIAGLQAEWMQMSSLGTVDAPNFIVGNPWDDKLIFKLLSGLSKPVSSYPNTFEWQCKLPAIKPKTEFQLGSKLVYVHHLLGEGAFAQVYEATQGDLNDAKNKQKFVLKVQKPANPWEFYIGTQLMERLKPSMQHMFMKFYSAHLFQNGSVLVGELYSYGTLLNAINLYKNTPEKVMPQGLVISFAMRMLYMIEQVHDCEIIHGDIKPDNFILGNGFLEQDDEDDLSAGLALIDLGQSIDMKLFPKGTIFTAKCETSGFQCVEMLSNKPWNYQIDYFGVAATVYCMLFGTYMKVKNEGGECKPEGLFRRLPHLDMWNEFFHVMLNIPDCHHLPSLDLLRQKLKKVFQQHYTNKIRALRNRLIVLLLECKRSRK
Summary of the method: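 TR-FRET read-out (Eu-anti-mouse IgG/anti-phosphoserine antibody to streptavidin-XL665 on biotinylated peptide) after EDTA stop and 1 h complex formation at 22° C. Kinase reaction ran 60 min at 22° C with 1:3.4 serial dilutions from 2 mM DMSO stocks. IC50 from 4-parameter logistic fit of normalized inhibition.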

[3] = Biological Assay 1: Bub1 kinase assay median IC50, 10 μM ATP
[4] = 10 μM ATP, read-out: Biological Assay 1: Bub1 kinase assay median IC50

| Compound | IC50 (Bub1) [nM] | IC50 [1] [nM] | IC50 (HeLa) [nM] | IC50 [2, 3] [nM] | IC50 [2, 4] [nM] |
| --- | --- | --- | --- | --- | --- |
| CCOc1cc(F)c(Cn2nc(-c3nc(CS(C)(=O)=O)cc(Nc4ccncc4)n3)c3ccccc32)c(F)c1 [Example 2-3-4, 2-[1-(4-ethoxy-2,6-difluorobenzyl)-1H-indazol-3-yl]-6-[(methylsulfonyl)methyl]-N-(pyridin-4-yl)pyrimidin-4-amine] | 0.52 | 1000 | 2100 | 5.9 |  |
| CCOc1cc(F)c(Cn2nc(-c3ncc(CCN)c(Nc4ccnc(C(F)F)c4)n3)c3ccccc32)c(F)c1 [Example 2-9-10, 5-(2-aminoethyl)-N-[2-(difluorometh-yl)pyridin-4-yl]-2-[1-(4-ethoxy-2,6-difluorobenzyl)-1H-indazol-3-yl]pyrimidin-4-amine, salt with hydrochloric acid] | 1500 | 54 | 1000 |  | 7.1 |
| CCOc1cc(F)c(Cn2nc(-c3nc4c(c(Nc5ccncn5)n3)CCC4)c3ccccc32)c(F)c1 [Example 2-14-6, 2-[1-(4-ethoxy-2,6-difluorobenzyl)-1H-indazol-3-yl]-N-(pyrimidin-4-yl)-6,7-dihydro-5H-cyclopenta[d]pyrimidin-4-amine] | 2.7 | 270 | 3600 |  | 37 |
| CCOc1cc(F)c(Cn2nc(-c3ncc(CN)c(Nc4ccnc(C(F)F)c4)n3)c3ccccc32)c(F)c1 [Example 2-9-6, 5-(aminomethyl)-N-[2-(difluoro-methyl)pyridin-4-yl]-2-[1-(4-ethoxy-2,6-difluorobenzyl)-1H-indazol-3-yl]pyrimidin-4-amine, salt with hydrochloric acid] | 2.9 | 260 | 3700 |  | 90 |
| CCOc1cc(F)c(Cn2nc(-c3nc4c(c(Nc5ccnc(C)n5)n3)CC(C)(C)C4)c3ccccc32)c(F)c1 [Example 2-12-60, 2-[1-(4-ethoxy-2,6-difluorobenzyl)-1H-indazol-3-yl]-6,6-dimethyl-N-(2-methylpyrimidin-4-yl)-6,7-dihydro-5H-cyclopenta[d]pyrimidin-4-amine] | 3.9 | 86 | > 10000 | 38 |  |
| CCOc1cc(F)c(Cn2nc(-c3nc(CN4CCOCC4)cc(Nc4ccncc4OC)n3)c3ccccc32)c(F)c1 [Example 2-19-13, 2-[1-(4-ethoxy-2,6-difluorobenzyl)-1H-indazol-3-yl]-N-(3-methoxypyridin-4-yl)-6-(morpholin-4-ylmethyl)pyrimidin-4-amine] | 3800 | 130 | 3400 |  | 7.7 |
| CCOc1cc(F)c(Cn2nc(-c3nc(COC)cc(Nc4ccncc4)n3)c3ccccc32)c(F)c1 [Example 2-12-4, 2-[1-(4-ethoxy-2,6-difluorobenzyl)-1H-indazol-3-yl]-6-(methoxymethyl)-N-(pyridin-4-yl)pyrimidin-4-amine] | 8.9 | 420 | 1800 | 5.2 |  |
| CCOc1cc(F)c(Cn2nc(-c3nc(C)c(F)c(Nc4ccncc4)n3)c3ccccc32)c(F)c1 [Example 2-12-5, 2-[1-(4-ethoxy-2,6-difluorobenzyl)-1H-indazol-3-yl]-5-fluoro-6-methyl-N-(pyridin-4-yl)pyrimidin-4-amine] | 390 | 920 | 1300 |  | 6.5 |

The remaining compounds from weak to strong by IC50 (Bub1), led by results:

| IC50 (Bub1) [nM] | IC50 [1] [nM] | IC50 (HeLa) [nM] | IC50 [2, 3] [nM] | IC50 [2, 4] [nM] | Compound |
| --- | --- | --- | --- | --- | --- |
| 1900 | 98 | 6000 |  | 25 | CCOc1cc(F)c(Cn2nc(-c3nc4c(c(Nc5cc(C)ncn5)n3)CCC4)c3ccccc32)c(F)c1 [Example 2-21-1, 2-[1-(4-ethoxy-2,6-difluorobenzyl)-1H-indazol-3-yl]-N-(6-methylpyrimidin-4-yl)-6,7-dihydro-5H-cyclopenta[d]pyrimidin-4-amine] |
| 1900 | 230 | 6900 | 15 |  | CCOc1cc(F)c(Cn2nc(-c3ncc(CCN4CCCC(F)(F)C4)c(Nc4ccncc4)n3)c3ccccc32)c(F)c1 [Example 2-2-16, 5-[2-(3,3-difluoropiperidin-1-yl)ethyl]-2-[1-(4-ethoxy-2,6-difluorobenzyl)-1H-indazol-3-yl]-N-(pyridin-4-yl)pyrimidin-4-amine] |
| 72 | 140 | 3600 | 35 |  | CCOc1cc(F)c(Cn2nc(-c3ncc(C4CCN(CCC(F)(F)F)CC4)c(Nc4ccncc4OC)n3)c3ccccc32)c(F)c1 [Example 2-22-1, 2-[1-(4-ethoxy-2,6-difluorobenzyl)-1H-indazol-3-yl]-N-(3-methoxypyridin-4-yl)-5-[1-(3,3,3-trifluoropropyl)piperidin-4-yl]pyrimidin-4-amine] |
| 49 | 120 | 5200 |  | 7 | CCOc1cc(F)c(Cn2nc(-c3nc4c(c(Nc5ccncc5C)n3)CCCC4)c3ccccc32)c(F)c1 [Example 2-19-20, 2-[1-(4-ethoxy-2,6-difluorobenzyl)-1H-indazol-3-yl]-N-(3-methylpyridin-4-yl)-5,6,7,8-tetrahydroquinazolin-4-amine] |
| 34 | 1400 | 4900 | 17 |  | CCOc1cc(F)c(Cn2nc(-c3nc(Nc4ccncc4)cc(C(C)C)n3)c3ccccc32)c(F)c1 [Example 2-12-3, 2-[1-(4-ethoxy-2,6-difluorobenzyl)-1H-indazol-3-yl]-6-(propan-2-yl)-N-(pyridin-4-yl)pyrimidin-4-amine] |
| 18 | 75 | 1300 |  | 23 | CCOc1cc(F)c(Cn2nc(-c3nc(CN4CCOCC4)cc(Nc4ccnc(C)c4)n3)c3ccccc32)c(F)c1 [Example 2-19-9, 2-[1-(4-ethoxy-2,6-difluorobenzyl)-1H-indazol-3-yl]-N-(2-methylpyridin-4-yl)-6-(morpholin-4-ylmethyl)pyrimidin-4-amine] |
| 12 | 64 | 3000 | 82 |  | Cc1nccc(Nc2nc(-c3nn(Cc4c(F)cc(OCCO)cc4F)c4ccccc34)ncc2C2CCN(CC3CC3)CC2)n1 [Example 2-6-23, 2-{4-[(3-{5-[1-(cyclopropyl-methyl)piperidin-4-yl]-4-[(2-methylpyrimidin-4-yl)amino]pyrimidin-2-yl}-1H-indazol-1-yl)methyl]-3,5-difluorophenoxy} ethanol] |
| 2.7 | 190 | 2300 |  | 52 | CCOc1cc(F)c(Cn2nc(-c3ncc(CC4CNC4)c(Nc4ccnc(C(F)F)c4)n3)c3ccccc32)c(F)c1 [Example 2-9-9, 5-(azetidin-3-ylmethyl)-N-[2-(difluorometh-yl)pyridin-4-yl]-2-[1-(4-ethoxy-2,6-difluorobenzyl)-1H-indazol-3-yl]pyrimidin-4-amine, salt with hydrochloric acid] |
| 0.79 | 90 | > 10000 | 30 |  | Cc1nccc(Nc2nc(-c3nn(Cc4c(F)cc(OCCO)cc4F)c4ccccc34)nc3c2CCC3)n1 [Example 2-6-18, 2-{3,5-difluoro-4-[(3-{4-[(2-methylpyrimidin-4-yl)amino]-6,7-dihydro-5H-cyclopenta[d]pyrimidin-2-yl}-1H-indazol-1-yl)methyl]phenoxy}ethanol] |
